System: HCV
Assay: Assay of anti-HCV activity in HCV-infected Huh7.5 cells (intracellular HCV RNA by one-step quantitative RT-PCR)
Format: cell-based
Conditions: Hepatitis C virus; compound at 1 μM; Huh7.5 cells infected with HCV; 96 hrs; intracellular HCV RNA vs viral control; read-out: inhibitory activities (inhibitory levels of the compounds against HCV replication)
Experimental: 100 μL Huh7.5 cells were seeded at a density of 1×10^5/mL in a 96-well cell culture plate and incubated in an incubator at 37° C., 5% CO2 and saturated humidity for 6 hrs. Then, while infecting Huh7.5 cells with viral solution containing HCV virus particles, the compounds of the present invention (including all specific compounds listed herein) were added at a concentration of 1 μM, respectively. After continuing incubation for 96 hrs, the total intracellular RNA was extracted separately, and the content of intracellular HCV RNA was measured by one-step quantitative RT-PCR, compared with the RNA level of the viral control, and the inhibition rate of the compounds against HCV was calculated.

| SMILES | inhibition at 1 µM [%] |
| --- | --- |
| CC1CN(c2ccc(Br)c(C(F)(F)F)c2)CCN1Cc1cc(N(C)CCN(C)C)ccc1C(F)(F)F (centres unmarked) [Compound 33, N^1-(3-((4-(4-bromo-3-(trifluoromethyl)phenyl)-2-methylpiperazin-1-yl)methyl)-4-(trifluoromethyl)phenyl)-N^1,N^2,N^2-trimethylethan-1,2-diamine] | > 75 |
| CCCC1CN(c2ccc(C(F)(F)F)cc2)CCN1Cc1cc(N2CCCN(C)CC2)ccc1C(F)(F)F (centres unmarked) [Compound 34, 1-methyl-4-(3-((2-propyl-4-(4-(trifluoromethyl)phenyl)piperazin-1-yl)methyl)-4-(trifluoromethyl)phenyl)-1,4-diazepane] | > 75 |
| CCN1CCCN(c2ccc(C(F)(F)F)c(CN3CCN(c4ccc(C)c(Cl)c4)CC3)c2)CC1 [Compound 35, 1-(3-((4-(3-chloro-4-methylphenyl)piperazin-1-yl)methyl)-4-(trifluoromethyl)phenyl)-4-ethyl-1,4-diazepane] | > 75 |
| CN1CCCN(c2ccc(C(F)(F)F)c(CN3CCN(c4ccc(F)cc4)CC3)c2)CC1 [Compound 36, 1-(3-((4-(4-fluorophenyl)piperazin-1-yl)methyl)-4-(trifluoromethyl)phenyl)-4-methyl-1,4-diazepane] | > 75 |
| CN1CCCN(c2ccc(C(F)(F)F)c(CN3CCN(c4ccc(F)c(Cl)c4)CC3)c2)CC1 [Compound 37, 1-(3-((4-(3-chloro-4-fluorophenyl)piperazin-1-yl)methyl)-4-(trifluoromethyl)phenyl)-4-methyl-1,4-diazepane] | > 75 |
| CN(CCN1CCCC1)c1ccc(C(F)(F)F)c(CN2CCC(c3ccc(Cl)cc3)CC2)c1 [Compound 39, 3-((4-(4-chlorophenyl)piperidin-1-yl)methyl)-N-methyl-N-(2-(pyrrolidin-1)ethyl)-4-(trifluoromethyl)aniline] | > 75 |
| Cc1cc(N2CCN(Cc3cc(N4CCCN(C)CC4)ccc3C(F)(F)F)CC2)ccc1Cl [Compound 40, 1-(3-((4-(4-chloro-3-methylphenyl)piperazin-1-yl)methyl)-4-(trifluoromethyl)phenyl)-4-methyl-1,4-diazepane] | > 75 |
| CN(C)CCN(C)c1ccc(C(F)(F)F)c(CN2CCN(c3ccc(Cl)c(F)c3)CC2)c1 [Compound 41, N^1-(3-((4-(4-chloro-3-fluorophenyl)piperazin-1-yl)methyl)-4-(trifluoromethyl)phenyl)-N^1,N^2,N^2-trimethylethan-1,2-diamine] | > 75 |
| CN(C)CCN(C)c1ccc(C(F)(F)F)c(CN2CCC(c3ccc(Cl)c(Cl)c3)CC2)c1 [Compound 42, N^1-(3-((4-(3,4-dichlorophenyl)piperidin-1-yl)methyl)-4-(trifluoromethyl)phenyl)-N^1,N^2,N^2-trimethylethan-1,2-diamine] | > 75 |
| Cc1cc(C2CCN(Cc3cc(N4CCCN(C)CC4)ccc3C(F)(F)F)CC2)ccc1Cl [Compound 43, 1-(3-((4-(4-chloro-3-methylphenyl)piperidin-1-yl)methyl)-4-(trifluoromethyl)phenyl)-4-methyl-1,4-diazepane] | > 75 |
| CN1CCCN(c2ccc(C(F)(F)F)c(CN3CCN(C(c4ccc(F)cc4)c4ccc(F)cc4)CC3)c2)CC1 [Compound 44, 1-(3-((4-(bis(4-fluorophenyl)methyl)piperazin-1-yl)methyl)-4-(trifluoromethyl)phenyl)-4-methyl-1,4-diazepane] | > 75 |
| Cc1ccc(C(c2ccc(C)cc2)N2CCN(Cc3cc(N4CCCN(C)CC4)ccc3C(F)(F)F)CC2)cc1 [Compound 45, 1-(3-((4-(bis(4-methylphenyl)methyl)piperazin-1-yl)methyl)-4-(trifluoromethyl)phenyl)-4-methyl-1,4-diazepane] | > 75 |
| CN1CCCN(c2ccc(C(F)(F)F)c(CN3CCN(C(c4ccc(Cl)cc4)c4ccc(Cl)cc4)CC3)c2)CC1 [Compound 46, 1-(3-((4-(bis(4-chlorophenyl)methyl)piperazin-1-yl)methyl)-4-(trifluoromethyl)phenyl)-4-methyl-1,4-diazepane] | > 75 |
| CN1CCCN(c2ccc(C(F)(F)F)c(CN3CCN(C(c4ccc(Br)cc4)c4ccc(Br)cc4)CC3)c2)CC1 [Compound 47, 1-(3-((4-(bis(4-bromophenyl)methyl)piperazin-1-yl)methyl)-4-(trifluoromethyl)phenyl)-4-methyl-1,4-diazepane] | > 75 |
| CC(C)c1ccc(C(c2ccc(C(C)C)cc2)N2CCN(Cc3cc(N4CCCN(C)CC4)ccc3C(F)(F)F)CC2)cc1 [Compound 48, 1-(3-((4-(bis(4-isopropylphenyl)methyl)piperazin-1-yl)methyl)-4-(trifluoromethyl)phenyl)-4-methyl-1,4-diazepane] | > 75 |
| CN(C)CCN(C)c1ccc(C(F)(F)F)c(CN2CCN(C(c3ccc(C4CC4)cc3)c3ccc(C4CC4)cc3)CC2)c1 [Compound 49, N^1-(3-((4-(bis(4-cyclopropylphenyl)methyl)piperazin-1-yl)methyl)-4-(trifluoromethyl)phenyl)-N^1,N^2,N^2-trimethylethan-1,2-diamine] | > 75 |
| CN(CCN1CCC1)c1ccc(C(F)(F)F)c(CN2CCN(C(c3ccc(Cl)cc3)c3ccc(Cl)cc3)CC2)c1 [Compound 50, N-(2-(azetidin-1-yl)ethyl)-3-((4-(bis(4-chlorophenyl)methyl)piperazin-1-yl)methyl)-N-methyl-4-(trifluoromethyl)aniline] | 50 to 75 |
| CN1CCCN(c2ccc(C(F)(F)F)c(CN3CCN(C(c4ccccc4)c4ccc(F)cc4)CC3)c2)CC1 (centres unmarked) [Compound 51, 1-(3-((4-((4-fluorophenyl)(phenyl)methyl)piperazin-1-yl)methyl)-4-(trifluoromethyl)phenyl)-4-methyl-1,4-diazepane] | > 75 |
| CN(C)CCN(C)c1ccc(C(F)(F)F)c(CN2CCN(C(c3ccc(Cl)cc3)c3ccc(Cl)cc3)CC2)c1 [Compound 52, N^1-(3-((4-(bis(4-chlorophenyl)methyl)piperazin-1-yl)methyl)-4-(trifluoromethyl)phenyl)-N^1,N^2,N^2-trimethylethan-1,2-diamine] | > 75 |
| CN(C)CCN(C)c1ccc(C(F)(F)F)c(CN2CCN(C(c3ccc(C(F)(F)F)cc3)c3ccc(C(F)(F)F)cc3)CC2)c1 [Compound 53, N^1-(3-((4-(bis(4-(trifluoromethyl)phenyl)methyl)piperazin-1-yl)methyl)-4-(trifluoromethyl)phenyl)-N^1,N^2,N^2-trimethylethan-1,2-diamine] | > 75 |
| CN(C)CCN(C)c1ccc(C(F)(F)F)c(CN2CCN(C(c3ccccc3)c3ccc(Cl)cc3)CC2)c1 (centres unmarked) [Compound 54, N^1-(3-((4-((4-chlorophenyl)(phenyl)methyl)piperazin-1-yl)methyl)-4-(trifluoromethyl)phenyl)-N^1,N^2,N^2-trimethylethan-1,2-diamine] | > 75 |
| CN1CCN(c2ccc(C(F)(F)F)c(CN3CCN(C(c4ccc(Cl)cc4)c4ccc(Cl)cc4)CC3)c2)CC1 [Compound 55, 1-(bis(4-chlorophenyl)methyl)-4-(5-(4-methylpiperazin-1-yl)-2-(trifluoromethyl)benzyl)piperazine] | > 75 |
| CN1CCCN(c2ccc(C(F)(F)F)c(CN3CCN(C(c4ccc(Cl)cc4)c4ccccn4)CC3)c2)CC1 (centres unmarked) [Compound 56, 1-(3-((4-((4-chlorophenyl)(pyridin-2-yl)methyl)piperazin-1-yl)methyl)-4-(trifluoromethyl)phenyl)-4-methyl-1,4-diazepane] | 50 to 75 |
| CN1CCCN(c2ccc(C(F)(F)F)c(CN3CCN(C(c4ccccc4)c4ccccn4)CC3)c2)CC1 (centres unmarked) [Compound 57, 1-methyl-4-(3-((4-(phenyl(pyridin-2-yl)methyl)piperazin-1-yl)methyl)-4-(trifluoromethyl)phenyl)-1,4-diazepane] | 50 to 75 |
| COc1ccc(C(c2ccc(OC)cc2)N2CCN(Cc3cc(N(C)CCN(C)C)ccc3C(F)(F)F)CC2)cc1 [Compound 58, N^1-(3-((4-(bis(4-methoxyphenyl)methyl)piperazin-1-yl)methyl)-4-(trifluoromethyl)phenyl)-N^1,N^2,N^2-trimethylethan-1,2-diamine] | > 75 |
| CCCN(CCN(C)C)c1ccc(C(F)(F)F)c(CN2CCN(C(c3ccc(Cl)cc3)c3ccc(Cl)cc3)CC2)c1 [Compound 59, N^1-(3-((4-(bis(4-chlorophenyl)methyl)piperazin-1-yl)methyl)-4-(trifluoromethyl)phenyl)-N^2,N^2-dimethyl-N^1-propylethan-1,2-diamine] | > 75 |
| CC1CN(C(c2ccc(F)cc2)c2ccc(F)cc2)CCN1Cc1cc(N2CCCN(C)CC2)ccc1C(F)(F)F (centres unmarked) [Compound 60, 1-(3-((4-(bis(4-fluorophenyl)methyl)-2-methylpiperazin-1-yl)methyl)-4-(trifluoromethyl)phenyl)-4-methyl-1,4-diazepane] | > 75 |
| CC1CN(C(c2ccc(Cl)cc2)c2ccc(Cl)cc2)CCN1Cc1cc(N2CCCN(C)CC2)ccc1C(F)(F)F (centres unmarked) [Compound 61, 1-(3-((4-(bis(4-chlorophenyl)methyl)-2-methylpiperazin-1-yl)methyl)-4-(trifluoromethyl)phenyl)-4-methyl-1,4-diazepane] | > 75 |
| CN(CC1CCCN1C)c1ccc(C(F)(F)F)c(CN2CCN(C(c3ccc(Cl)cc3)c3ccc(Cl)cc3)CC2)c1 (centres unmarked) [Compound 62, 3-((4-(bis(4-chlorophenyl)methyl)piperazin-1-yl)methyl)-N-methyl-N-((1-methylpyrrolidin-2-yl)methyl)-4-(trifluoromethyl)aniline] | > 75 |
